From PubChem BioAssay (NCI)
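Where inhibition never reached the appropriate level, the endpoint shown equals the highest concentration tested. Otherwise, values were interpolated linearly from a five-concentration, 48-hour dose response in 96-well plates. TGI: total growth inhibition.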

What was measured:
Test in all cases: inhibition of tumour cell growth, NCI panel, 48 h
HCT-116 colon = test system: HCT-116 colon
UACC-62 melanoma = test system: UACC-62 melanoma
SF-295 CNS = test system: SF-295 CNS
786-0 renal = test system: 786-0 renal
MDA-N = test system: MDA-N
NCI-H23 lung = test system: NCI-H23 lung
RPMI-8226 leukemia = test system: RPMI-8226 leukemia
PC-3 prostate = test system: PC-3 prostate
U251 CNS = test system: U251 CNS
MDA-MB-231 breast = test system: MDA-MB-231 breast
SN12C renal = test system: SN12C renal
T-47D breast = test system: T-47D breast
A549 NSCLC = test system: A549 NSCLC
EKVX NSCLC = test system: EKVX NSCLC
TK-10 renal = test system: TK-10 renal
BT-549 breast = test system: BT-549 breast
NCI-H226 lung = test system: NCI-H226 lung
HCT-15 colon = test system: HCT-15 colon
M14 melanoma = test system: M14 melanoma
CAKI-1 renal = test system: CAKI-1 renal
OVCAR-5 ovarian = test system: OVCAR-5 ovarian
NCI/ADR-RES ovarian = test system: NCI/ADR-RES ovarian
MCF7 breast = test system: MCF7 breast
A498 renal = test system: A498 renal
HOP-92 NSCLC = test system: HOP-92 NSCLC
NCI-H522 lung = test system: NCI-H522 lung
DU-145 prostate = test system: DU-145 prostate
SK-OV-3 ovarian = test system: SK-OV-3 ovarian
OVCAR-3 ovarian = test system: OVCAR-3 ovarian
MALME-3M melanoma = test system: MALME-3M melanoma
NCI-H460 lung = test system: NCI-H460 lung
COLO 205 colon = test system: COLO 205 colon
SK-MEL-5 melanoma = test system: SK-MEL-5 melanoma
HCC-2998 colon = test system: HCC-2998 colon
UACC-257 melanoma = test system: UACC-257 melanoma
K-562 leukemia = test system: K-562 leukemia
KM12 colon = test system: KM12 colon
OVCAR-4 ovarian = test system: OVCAR-4 ovarian
MDA-MB-435 = test system: MDA-MB-435
ACHN renal = test system: ACHN renal
SNB-75 CNS = test system: SNB-75 CNS
SK-MEL-2 melanoma = test system: SK-MEL-2 melanoma
SNB-19 CNS = test system: SNB-19 CNS
SF-268 CNS = test system: SF-268 CNS
UO-31 renal = test system: UO-31 renal
SK-MEL-28 melanoma = test system: SK-MEL-28 melanoma
HOP-62 NSCLC = test system: HOP-62 NSCLC
LOX IMVI melanoma = test system: LOX IMVI melanoma
SW-620 colon = test system: SW-620 colon
IGROV1 ovarian = test system: IGROV1 ovarian
SF-539 CNS = test system: SF-539 CNS
OVCAR-8 ovarian = test system: OVCAR-8 ovarian
MOLT-4 leukemia = test system: MOLT-4 leukemia
HT29 colon = test system: HT29 colon
RXF 393 renal = test system: RXF 393 renal
CCRF-CEM leukemia = test system: CCRF-CEM leukemia

Measured: TGI

CC(C)(C)c1cc(COc2cc(COc3ccc(-c4c5c(nc6c4CCc4ccc(-c7c8ccccc8nc8ccccc78)cc4-6)-c4cc(-c6c7ccccc7nc7ccccc67)ccc4CC5)cc3)cc(OCc3cc(C(C)(C)C)cc(C(C)(C)C)c3)c2)cc(C(C)(C)C)c1
not listed: LOX IMVI melanoma | SW-620 colon | IGROV1 ovarian | SF-539 CNS | OVCAR-8 ovarian | MOLT-4 leukemia | HT29 colon | RXF 393 renal | CCRF-CEM leukemia
> 100 µM: all other assays above

CCN(C(=O)N[C@@H](Cc1ccccc1)C(=O)N[C@@H](CC(C)C)C(=O)NC)c1ccccc1
not listed: A498 renal | SF-268 CNS
> 100 µM: all other assays above
